Measured values from US11521704B2, “Method for probing at least one binding site of a protein” (priority 2017, dated 2022).
Like-named read-outs stand apart in the source and are kept apart here.

Columns and labels:
[1] = system: clinically-derived HIV-1 protease variant VSL23; assay: Cell-based assay (Swanstrom laboratory); settings: Human immunodeficiency virus 1
[2] = system: clinically-derived HIV-1 protease variant VEG23; assay: Cell-based assay (Swanstrom laboratory); settings: Human immunodeficiency virus 1
[3] = system: clinically-derived HIV-1 protease variant SLK19; assay: Cell-based assay (Swanstrom laboratory); settings: Human immunodeficiency virus 1
[4] = system: SF-2 wild-type HIV-1 protease; assay: Cell-based replicon assay; settings: Human immunodeficiency virus 1, cell-based replicon assays
From the text: (§1) A diverse panel of 15 HIV-1 protease variants was chosen with a broad range of sequence substitutions containing single site mutants and more heavily mutated multi-drug resistant proteases (MDR-PRs). Both the SF-2 and NL4-3 wild-type (WT) proteases were used as controls for the variants in the panel. These two WT proteins shared 95% identity, varying at positions 7, 14, 41, 63 and 64 (FIG. 2). […] Table 1 is a listing of EC50 values for clinically-derived HIV-1 protease variants determined by cell-based assays at the Swanstrom laboratory at UNC-Chapel Hill, and fold changes relative to wild type NL4-3. The EC50 value for variant ATA21 could not be determined.

[5] = system: NL4-3 wild-type HIV-1 protease; assay: Cell-based assay (Swanstrom laboratory); settings: Human immunodeficiency virus 1, NL43
From the text: as §1

[6] = system: clinically-derived HIV-1 protease variant KY26; assay: Cell-based assay (Swanstrom laboratory); settings: Human immunodeficiency virus 1

CC(C)CN(C[C@@H](O)[C@H](Cc1ccccc1)NC(=O)O[C@H]1CO[C@H]2OCC[C@H]21)S(=O)(=O)c1ccc(N)cc1 [DRV, Darunavir]
EC50 [1]: 320 nM
EC50 [2]: 7800 nM
EC50 [3]: 32.5 nM
EC50 [4]: 4 nM
EC50 ([5]; NL4-3, cell-based replicon assays, read-out: EC50): 4 nM
EC50 ([5]; NL4-3 wild type, read-out: EC50 In): 3.98 nM
EC50 [6]: 1160 nM
